Literature values as cited in patent US20080317725A1, “COMPOSITIONS AND METHODS OF TREATING CHRONIC KIDNEY DISEASE” (priority 2007, published 2008).

Key:
[1] = administered in large doses
[2] = test system: subjects undergoing dialysis; settings: vitamin A intake of about 15,000 IU

## CC(=O)N[C@@H](CS)C(=O)O [NAC, N-acetyl cysteine]
[1]
  side effect: cause nausea

## C=C1CC[C@H](O)C/C1=C/C=C1\CCC[C@]2(C)[C@@H]([C@H](C)/C=C/[C@H](C)C(C)C)CC[C@@H]12 [vitamin D2, ergocalciferol]
humans
  vitamin D activity in humans relative to vitamin D3: about 1.7 times less than D3

## vitamin A
[2]
  toxicity of vitamin A intake: produce vitamin A toxicity and correlate with hypercalcaemia
